ChEMBL document CHEMBL3352672, “Lithocarpic acids O-S, five homo-cycloartane derivatives from the cupules of Lithocarpus polystachyus” (Bioorg Med Chem Lett, 2014)

Key:
Type in all cases: cell-based
[1] = target: T1, 11-beta-hydroxysteroid dehydrogenase 1 (Homo sapiens, UniProt P28845); assay: Inhibition of human 11beta-HSD1 in expressed in HEK293 cells microsomal fractions incubated with NADPH and [3H]-cortisone by scintillation proximity assay
Target sequence in this assay (P28845 whole entry): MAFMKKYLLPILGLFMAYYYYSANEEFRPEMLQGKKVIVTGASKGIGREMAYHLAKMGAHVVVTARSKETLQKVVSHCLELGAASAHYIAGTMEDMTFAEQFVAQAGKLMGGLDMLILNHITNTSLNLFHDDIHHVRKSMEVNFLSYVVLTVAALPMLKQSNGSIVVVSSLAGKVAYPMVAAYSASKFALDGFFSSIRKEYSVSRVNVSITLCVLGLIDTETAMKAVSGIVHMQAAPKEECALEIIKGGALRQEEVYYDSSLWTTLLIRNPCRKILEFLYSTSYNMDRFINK

[2] = target: 11-beta-hydroxysteroid dehydrogenase 1 (Mus musculus) (UniProt P50172); assay: Inhibition of mouse 11beta-HSD1 in expressed in HEK293 cells microsomal fractions incubated with NADPH and [3H]-cortisone at 10 uM by scintillation proximity assay
11-beta-hydroxysteroid dehydrogenase 1 (Mus musculus), sequence (P50172 whole entry, looked up): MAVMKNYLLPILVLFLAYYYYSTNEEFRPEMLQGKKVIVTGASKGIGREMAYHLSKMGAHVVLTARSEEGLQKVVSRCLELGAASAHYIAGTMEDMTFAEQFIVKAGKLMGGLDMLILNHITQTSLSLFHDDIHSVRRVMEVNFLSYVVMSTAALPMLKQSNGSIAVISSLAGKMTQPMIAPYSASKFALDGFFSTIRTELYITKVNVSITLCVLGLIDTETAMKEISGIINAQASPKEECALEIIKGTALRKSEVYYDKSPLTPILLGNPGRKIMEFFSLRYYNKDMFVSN

[3] = target: T1, 11-beta-hydroxysteroid dehydrogenase 1; assay: Inhibition of human 11beta-HSD1 in expressed in HEK293 cells microsomal fractions incubated with NADPH and [3H]-cortisone at 10 uM by scintillation proximity assay
Target sequence in this assay (P28845 whole entry, looked up): as the sequence (P28845 whole entry) above

[4] = target: 11-beta-hydroxysteroid dehydrogenase 1 (Mus musculus, UniProt P50172); assay: Inhibition of mouse 11beta-HSD1 in expressed in HEK293 cells microsomal fractions incubated with NADPH and [3H]-cortisone by scintillation proximity assay
11-beta-hydroxysteroid dehydrogenase 1 (Mus musculus, UniProt P50172), sequence (P50172 whole entry): as the sequence (P50172 whole entry, looked up) above

IC50 [1] | inhibition [2] | inhibition [3] | IC50 [4] | SMILES
3800 nM |  |  |  | C=C(CC[C@@H](COC(C)=O)[C@H]1CC[C@@]2(C)[C@@H]3CC[C@@H](C(C)(C)O)[C@@]4(CCC(=O)O)C[C@@]34CC[C@]12C)C(C)C
1400 nM | 94% | > 80% | 490 nM | C=C(CC[C@@H](CO)[C@H]1CC[C@@]2(C)[C@@H]3CC[C@@H](C(=C)C)[C@@]4(CCC(=O)O)C[C@@]34CC[C@]12C)C(C)C
2300 nM | > 60% |  |  | C=C(CC[C@@H](C(=O)O)[C@H]1CC[C@@]2(C)[C@@H]3CC[C@H]4C(C)(C)C(=O)CC[C@@]45C[C@@]35CC[C@]12C)C(C)C
4100 nM | 73% | > 60% | 2800 nM | C=C(CC[C@@H](COC(C)=O)[C@H]1CC[C@@]2(C)[C@@H]3CC[C@@H](C(=C)C)[C@@]4(CCC(=O)O)C[C@@]34CC[C@]12C)C(C)C
